Data published in patent US8841316B2, “Multicomponent crystalline system of rosuvastatin calcium salt and vanillin” (BASF SE, priority 2011, dated 2014).

Assay: Water vapor sorption (water content under humidity)
Assay type: physicochemical

- Water vapor sorption: water content after 2 h at 50% r.h. (after 2 h at 50% r.h.): 6.2%
- Water vapor sorption: water content after 5 h at 95% r.h. (after 5 h at 95% r.h.): 10.1%
Substance: bis[(E)-7-[4-(4-fluorophenyl)-6-isopropyl-2-[methyl(methylsulfonyl)amino]pyrimidin-5-yl](3R,5S)-3,5-dihydroxyhept-6-enoic acid] calcium salt [Crystal form A]
